We go through one molecule from US11319311B2, “Crystalline forms of Actinomycin D for treatment of cancer” (TRANSGENEX NANOBIOTECH, INC., priority 2018, dated 2022).

Where two headings read alike, the source gives them in different places.

Holding throughout (type): cell-based
One assay concerns H1299. As to the kind of experiment: Monolayer cell culture IC50 (CellTiter-Glo viability), H1299. As to conditions: Lung, 72 hours treatment, average of three replications. As for the experimental part: (§1) Cancer cell lines listed in Table 1 were subjected for testing anti-cancer potency or the half maximal inhibitory concentration (IC50) of the D-Actinomycin (DACT) molecular complexes.
(§2) The SK-ES-1, U-2 OS, and SAOS-2 cells were cultured in a growth medium that is ATCC-formulated McCoy's 5a Medium Modified, Catalog No. 30-2007. The PC-3, PANC-1, SK-Mel-5, A549, H460, and H1299 were cultured in a growth medium that is ATCC-formulated Dulbecco's Modified Eagle's Medium (DMEM), Catalog No. 30-2002. The cells were seeded on 96-well microtiter plates with 3500 cells per well and cultured in an incubator (Model 3120, Thermo Scientific, USA) with a constant temperature at 37° C. and 5% carbon dioxide (CO2) gas for 24 hours.
(§3) The new DACT-molecular complexes were made into a series with concentration of 200 nM to 40 nM, 8 nM, 1.6 nM, 0.32 nM, and 0.064 nM. 100 μl of each solution was then added into each well to bring out the final concentration of the drug treatment at 100 nM, 20 nM, 4 nM, 0.8 nM, 0.16 nM, or 0.032 nM, respectively.
(§4) The treated cells in the 96 well plate was then further cultured at the same conditions for 72 hours and then subjected for a final cell viability measurement. The measurement used a homogeneous method to determine the number of metabolically active cells presented in each of treatments. A testing reagent for the measurement is a mixture solution of the CellTiter-Glo® 2.0 reagent (CTG, Promega Cat #G9243, USA) and growth medium in 1:1 ratio in this respect.
(§5) The 96-well plate with the new molecular complex treated cells was taken out from incubator after the 72 hours of incubation, and the treatment solution in each well was removed using a multichannel pipette, and 100 μl of the testing reagent were added into each well. The plate was then placed on a plate shaker for 15 min. The plate was covered with a piece of aluminum foil to protect the CTG luminescence during the shaking time.
(§6) Then 90 μl of the 100 μl testing reagent were transferred into an opaque-walled 96-well plate for the CTG luminescence reading on a plate reader (SynergyH4 Hybrid Reader, Biotek, USA). The luminescence intensity of each treatment was positively correlated with the number of cells survived during the treatments.
(§7) All the treatment data was normalized by comparing with the control samples that had only growth medium without any molecular complexes. The half maximal inhibitory concentration (IC50) data was calculated using the nonlinear regression model and dose-responses (inhibition) curve built in the software. Each of treatments was performed in three replications each time and repeated three times for validation. The IC50 average […] (Avg) and standard deviation (STDV) were calculated based on the three replications.
(In general: ATP-based viability assays read luminescence as a measure of living cells.)

A further assay deals with A549. As to the kind of experiment: Monolayer cell culture IC50 (CellTiter-Glo viability), A549. As to conditions: Lung, 72 hours treatment, average of three replications. As for the experimental part:
as §1, §2, §3, §4, §5, §6, §7

Assay [1] concerns human sarcoma cell line SK-ES-1. As to the kind of experiment: Tumor sphere formation assay. From the text: Cancer stem cells (CSCs) are defined as a small subset of cells within a tumor with the ability to self-renew and often drive tumor progression and recurrence after chemotherapy treatment (Xiaochen Zhou, et al. 2015. A Reliable Parameter to Standardize the Scoring of Stem Cell Spheres. PLOS One 10(5); e0127348). It is important to study the responses of cancer stem cells or the tumors treated with the new molecular complexes. We have assessed cancer stem cells (CSCs) growth using tumor sphere formation assay, which involves culturing cancer cells in low attachment plates in serum free media. Sphere size and diameter was measured using Image) software and statistical analysis was performed using Graph Pad Prism Software.
The stem cell culture medium is prepared for 500 ml (250 ml of Dulbecco's Modified Eagle Medium (DMEM) (ATCC® 30-2002) plus 250 ml of F-12K medium (ATCC® 30-2004)) using 20 ng/ml epidermal growth factor, 10 ng/ml basic fibroblast growth factor, 5 μg/ml insulin and 0.4% Bovine Serum Albumin. All preparation methods known to the person skilled in the art.
The cancer cell line used in this study was human sarcoma cell line SK-ES-1. The cells were seeded in a density of 200 per well per 200 μl in a 96-well Ultra-Low Attachment plate (Corning, Cat #3474, USA), this plate is specially treated for stem cell growth or tumor culture. On the day 1 of seeding, 100 μl of cell solution was added into the plate. […]
On the day 6 of seeding, 10 μl of NucBlue Live Cell Stain ReadyProbes (Invitrogen Cat #R37605, USA) were added into each well for staining to visualize the live cells under the blue fluorescent light. […] Then the plate was brought to the Keyence imaging device (Keyence America, All-in-One Fluorescence Microscope BZ-X800, USA) for image scanning. […]
The sum of sphere image area of every individual sphere, with diameter over 50 μm, in each well was calculated. […] The sphere image area was calculated based on the sum area of spheres with diameter over 50 μm in each treatment well, and significance was declared at P<0.05 for the bars indicated by *, and P<0.001 by **. […]

Where [2] appears, read: Test I, read-out: IC50 Test (I) Avg.
The mark [3] stands for this setting: Test II, read-out: IC50 Test (II) Avg.
The mark [4] stands for this setting: Test III, read-out: IC50 Test (III) Avg.

Turning to `CCCOC(=O)c1ccc(O)cc1.Cc1c2oc3c(C)ccc(C(=O)NC4C(=O)NC(C(C)C)C(=O)N5CCCC5C(=O)N(C)CC(=O)N(C)C(C(C)C)C(=O)OC4C)c3nc-2c(C(=O)NC2C(=O)NC(C(C)C)C(=O)N3CCCC3C(=O)N(C)CC(=O)N(C)C(C(C)C)C(=O)OC2C)c(N)c1=O` (stereo not drawn) [DACT-propylparaben], the half-inhibitory concentration (IC50) in the assay with H1299 (setting [2]) is 1.48 nM; with H1299 (setting [3]), 0.96 nM; with H1299 (setting [4]), 1.05 nM; with A549 (setting [2]), 1.39 nM; in the assay on A549 (setting [3]), 1.74 nM; in the assay on A549 (setting [4]), 1.63 nM. Besides, the sphere area entry in assay [1] (SK-ES-1 spheres with diameter over 50 μm, day 6 of seeding, compared with pure parent molecule DACT) is “noticeable reduction in sphere area”. Besides, in assay [1] (compared with that of the parent molecule), the “tumor spheres size (SSS)” value is on record as “reduced tumor spheres size (SSS)”. Besides, the “tumor sphere formation efficiency (SFE)” value in assay [1] (compared with the parent molecule) was “reduced tumor sphere formation efficiency (SFE)”.

The term IC50 denotes the concentration needed to halve the response being measured.
